Data as given in DBAASP.
≈ marks a conversion by molar mass, not a printed value. One block for each molecule: values may come before it.

Experiments:
Assay in all cases: ≥ marks a high value that may be exact or a test limit, other limits are often not marked, values filed in µg/mL are converted to µM
[1] = system: Bacillus subtilis IFO 3143
[2] = system: Escherichia coli IFO 12734
[3] = system: Pseudomonas aeruginosa IFO 12582
[4] = system: Staphylococcus aureus IFO 12732
Acinetobacter baumannii = system: Acinetobacter baumannii
[5] = system: Enterobacter cloacae 2524
[6] = system: Enterobacter cloacae 6780
Escherichia coli 170 = system: Escherichia coli 170
Escherichia coli 4530 = system: Escherichia coli 4530
[7] = system: Escherichia coli ATCC 25922
[8] = system: Klebsiella pneumoniae 1625
[9] = system: Klebsiella pneumoniae 913
[10] = system: Pseudomonas aeruginosa 4677
[11] = system: Bacillus megaterium KCTC 1096
[12] = system: Bacillus subtilis KCTC 1918
[13] = system: Escherichia coli KCTC 1682
Proteus vulgaris = system: Proteus vulgaris
[14] = system: Pseudomonas aeruginosa KCTC 1637
[15] = system: Staphylococcus aureus KCTC 1621
[16] = system: Salmonella typhimurium KCTC 1926
[17] = system: Streptococcus pyogenes KCTC 3096

MIC [1]: 3.18 µM (≈ 8 µg/mL)
MIC [2]: 6.37 µM (≈ 16 µg/mL)
MIC [3]: 6.37 µM (≈ 16 µg/mL)
MIC [4]: 6.37 µM (≈ 16 µg/mL)
SMILES: CC(C)C[C@H](NC(=O)[C@H](Cc1ccc(O)cc1)NC(=O)[C@H](C)NC(=O)[C@@H](NC(=O)[C@H](CC(C)C)NC(=O)[C@H](C)NC(=O)[C@H](C)NC(=O)[C@H](CCCCN)NC(=O)CNC(=O)[C@@H](NC(=O)[C@H](C)NC(=O)[C@H](CCCCN)NC(=O)CNC(=O)[C@@H](NC(=O)[C@H](C)NC(=O)[C@H](C)NC(=O)[C@H](C)NC(=O)[C@H](CCCCN)NC(=O)[C@H](CCCCN)NC(=O)[C@H](Cc1ccccc1)NC(=O)[C@H](Cc1ccccc1)NC(=O)[C@H](CO)NC(=O)CNC(=O)[C@H](Cc1c[nH]c2ccccc12)NC(=O)CN)C(C)C)C(C)C)[C@@H](C)O)C(=O)O [GWGSFFKKAAAVGKAVGKAALTAYL]

MIC (Acinetobacter baumannii): 4.42 µM (≈ 11.3 µg/mL)
MIC [5]: 3.12 µM (≈ 8.01 µg/mL)
MIC [6]: ≥ 50 µM
MIC (Escherichia coli 170): 1.56 µM (≈ 4 µg/mL)
MIC (Escherichia coli 4530): ≥ 50 µM
MIC [7]: 12.5 µM (≈ 32.1 µg/mL)
MIC [8]: 6.25 µM (≈ 16 µg/mL)
MIC [9]: ≥ 50 µM
MIC [10]: ≥ 50 µM
SMILES: CC[C@H](C)[C@H](N)C(=O)N[C@@H](CCCCN)C(=O)N[C@@H](CO)C(=O)N[C@H](C(=O)N[C@@H](C)C(=O)N[C@@H](CO)C(=O)N[C@@H](CCCCN)C(=O)N[C@H](C(=O)N[C@@H](C)C(=O)N[C@@H](CC(N)=O)C(=O)N[C@H](C(=O)N[C@H](C(=O)N[C@@H](CCC(N)=O)C(=O)N[C@@H](CCCCN)C(=O)N[C@@H](CC(C)C)C(=O)N[C@@H](CCCCN)C(=O)N[C@@H](CCCN=C(N)N)C(=O)N[C@@H](CCCCN)C(=O)N[C@@H](C)C(=O)N[C@@H](CCCCN)C(=O)N[C@@H](CC(N)=O)C(=O)N[C@@H](C)C(=O)N[C@H](C(=O)N[C@@H](C)C(=O)O)C(C)C)C(C)C)[C@@H](C)O)C(C)C)[C@@H](C)CC [IKSIASKVANTVQKLKRKAKNAVA]

MIC [11]: 0.78 µM (≈ 1.64 µg/mL)
MIC [12]: 0.78 µM (≈ 1.64 µg/mL)
MIC [13]: 3.12 µM (≈ 6.56 µg/mL)
MIC (Proteus vulgaris): 3.12 µM (≈ 6.56 µg/mL)
MIC [14]: 3.12 µM (≈ 6.56 µg/mL)
MIC [15]: 1.56 µM (≈ 3.28 µg/mL)
SMILES: CC[C@H](C)[C@H](NC(=O)[C@H](CCCCN)NC(=O)[C@H](CCCCN)NC(=O)[C@H](Cc1ccccc1)NC(=O)[C@H](Cc1c[nH]c2ccccc12)NC(=O)[C@@H](N)CCCCN)C(=O)N1CCC[C@H]1C(=O)N[C@@H](CCCCN)C(=O)N[C@@H](Cc1ccccc1)C(=O)N[C@@H](CC(C)C)C(=O)N[C@@H](Cc1cnc[nH]1)C(=O)N[C@@H](CC(C)C)C(=O)N[C@@H](CC(C)C)C(=O)N[C@@H](CCCCN)C(=O)N[C@@H](CCCCN)C(=O)N[C@@H](Cc1ccccc1)C(N)=O [KWFKKIPKFLHLLKKF]

MIC [12]: 1.56 µM (≈ 3.55 µg/mL)
MIC [13]: 6.25 µM (≈ 14.2 µg/mL)
MIC [14]: 3.12 µM (≈ 7.11 µg/mL)
MIC [16]: 0.78 µM (≈ 1.77 µg/mL)
MIC [15]: 3.12 µM (≈ 7.11 µg/mL)
MIC [17]: 0.78 µM (≈ 1.77 µg/mL)
SMILES: CC[C@H](C)[C@H](NC(=O)[C@H](CCCCN)NC(=O)[C@H](CCCCN)NC(=O)[C@H](Cc1ccccc1)NC(=O)[C@H](CC(C)C)NC(=O)[C@H](CCCCN)NC(=O)[C@H](Cc1c[nH]c2ccccc12)NC(=O)[C@@H](N)CCCCN)C(=O)N1CCC[C@H]1C(=O)N[C@@H](CCCCN)C(=O)N[C@@H](Cc1ccccc1)C(=O)N[C@@H](CC(C)C)C(=O)N[C@@H](Cc1cnc[nH]1)C(=O)N[C@@H](CO)C(=O)N[C@@H](C)C(=O)N[C@@H](CCCCN)C(=O)N[C@@H](CCCCN)C(=O)N[C@@H](Cc1ccccc1)C(N)=O [KWKLFKKIPKFLHSAKKF]
